Measured values published in article PMC7503713, “GANT61 Reduces Hedgehog Molecule (GLI1) Expression and Promotes Apoptosis in Metastatic Oral Squamous Cell Carcinoma Cells” (International Journal of Molecular Sciences, 2020).

Assays:
Format in all cases: cell-based, human
APC02 = experiment: alamarBlue cytotoxicity assay, APC02; conditions: 72 h of incubation
Experimental: (§1) To assess the cytotoxicity of the GLI inhibitor GANT61 (Sigma-Aldrich, St. Louis, MO, USA) in tumor and non-tumor cell lines, an alamarBlue assay (Sigma-Aldrich Chemical Co, St. Louis, MO, USA) was performed after 72 h of exposure to the inhibitor, as described by Ahmed et al., 1994 [46]. Cells were distributed on 96-well plates at a density of 7 × 10^4 cells/mL for adhered cells, and 3 × 10^5 cells/mL for cells in suspension. All tested compounds were dissolved in DMSO, added to wells containing 100 µL of cells in complete medium, and then incubated for 72 h. Eight concentrations of GANT61 (0.19 to 50 µg/mL), Doxorubicin (Laboratory IMA S.A.I.C., Buenos Aires, Argentina), and 5-Fluorouracil (5-FU, Sigma-Aldrich, St. Louis, MO, USA), both used as positive controls at concentrations ranging from 0.03 to 5 µg/mL, were added to respective wells. […] Absorbance was measured at 570 nm (reduced) and 595 nm (oxidized) wavelengths, using a Spectramax 190 plate reader (Molecular Devices; Sunnyvale, CA, USA).
(§2) Statistical analyses were performed, using GraphPad Prism v. […] Data were analyzed according to distribution along the normal Gaussian curve. […] Differences between groups resulting from in vitro assays were evaluated by ANOVA (analysis of variance) testing, followed by the Student–Newman–Keuls test. […]

GLI3 mRNA = experiment: qPCR of HH pathway gene expression in HSC3 cells, GLI3; conditions: HSC3, 18 and 36 µM, 12 h, not significant
Experimental: (§3) For total RNA isolation, HSC3 cells were plated on 6-well plates, at a density of 0.7 × 10^5 cells/mL (5 mL/well volume), and incubated overnight, followed by treatment with the GLI inhibitor for 12 h at both concentrations (18 and 36 µM).
(§4) All experiments were carried out under DNAse/RNAse-free conditions. Silica microcolumns were used for RNA extraction, using an RNeasy Plus Mini Kit (QIAGEN, Hilden, Germany). Extracted RNA was analyzed for quantity and purity, using a NanoDrop®® 1000 spectrophotometer (Thermo Fisher Scientific, Waltham, MA, USA).
(§5) Reverse transcription was performed by using Superscript VILO™ transcriptase enzyme (Invitrogen, Carlsbad, CA, USA). The cDNA samples were stored at −20 °C, until the time of use.
(§6) HH pathway component expression was evaluated in cells treated or not with GANT61 by qPCR, using TaqMan Gene Expression Assays^TM inventoried for the PTCH1 (Hs00181117_m1), GLI1 (Hs01110766_m1), GLI2 (Hs01119974_m1), and GLI3 (Hs00609233_m1) genes, as well as for B2 M (Hs99999907_m1). […]
(§7) Following amplification and dissociation runs, quantification cycle (Cq) values were obtained by using the ViiA7^TM System Operational Program (AppliedByosistems, Foster City, CA, USA). For relative quantification, the comparative method (2−∆∆Cq) described by Livak and Schmittgen, 2001 was used. […]

SCC4 = experiment: alamarBlue cytotoxicity assay, SCC4; conditions: 72 h of incubation
Experimental: as §1, §2

HaCat = experiment: alamarBlue cytotoxicity assay, HaCat; conditions: 72 h of incubation
Experimental: as §1, §2

SHH protein = experiment: Western blot of HH pathway proteins in HSC3 cells, SHH; conditions: HSC3, 18 and 36 µM, 24 h
Experimental: After culturing, HSC3 cells were washed with PBS and denatured by using cell lysis buffer containing 50 mM Tris-HCl (pH 7.4), 1% Triton X-100, 150 mM NaCl, 0.5 mM EGTA, 0.5 EDTA mM, and an anti-protease cocktail (Complete Pro-inhibitor Cocktail Tablets, Roche, Basel, Switzerland). Protein extracts (50 μg) were separated by SDS-PAGE and transferred to Hybond-C Extra (GE Healthcare, Chicago, IL, USA) nitrocellulose membranes. The following antibodies were used in the Western blot assay: mouse […] against Sonic Hedgehog (1:500, Clone 5 H4, Cat. number NBP2-22126, Novus Biologicals, Centennial, CO, USA), rabbit polyclonal against Gli1 (1:500, Novus Biologicals, Cat. number NB600-600), rabbit polyclonal against Patched 1 (1:500, Novus Biologicals, Cat.number NB200-118), and rabbit polyclonal against Smoothened (1:1000, Cat. number AB72130, Abcam, Cambridge, MA, USA). The secondary antibodies were anti-mouse IgG (1:10,000, Santa Cruz Biotechnology, Santa Cruz, CA, USA) and anti-rabbit IgG (1:10,000, GE Healthcare, Chicago, IL, USA). Signal detection was performed by using an ECL + Chemiluminescence Detection System (PerkinElmer, Villebon sur-Yvette, France). The antibody actin (1:10000, Cat. Number15 G5 A11/E2, Invitrogen, Carlsbad, CA, USA) was selected as an endogenous control for analysis of HH pathway component expression in HSC3 cells. […]

HT-29 = experiment: alamarBlue cytotoxicity assay, HT-29; conditions: HT-29, alamarBlue, 72 h of incubation
Experimental: as §1, §2

PTCH1 mRNA = experiment: qPCR of HH pathway gene expression in HSC3 cells, PTCH1; conditions: HSC3, 36 µM, 12 h, not significant
Experimental: as §3, §4, §5, §6, §7

`CN(C)c1ccccc1CN1CCCN(Cc2ccccc2N(C)C)C1c1ccncc1` [GANT61] was tested, and the IC50 (APC02) was over 116 µM, the “mRNA expression of GLI3” value (GLI3 mRNA) was “Reductions in mRNA expression” and the IC50 (SCC4) was 111 µM. For the same compound, the IC50 (HaCat) was 35.1 µM, the SHH protein expression (SHH protein) was “reduced levels” and the IC50 (HT-29) was over 116 µM. The “mRNA expression of PTCH1” value (PTCH1 mRNA) was “Reductions in mRNA expression”.
